# Measurements as given in US12286423B2, “Antiviral 1,3-di-oxo-indene compounds” (Novartis AG, priority 2020, dated 2025).
# Experiments:
# [1] = cited from earlier work
# [2] = cited from earlier work; for metabolization and excretion / bioavailability: in vivo
# [3] = in vivo; cited from earlier work
# [4] = system: 48 rhinovirus types and coxsackievirus A21, B3, enterovirus 70 and echovirus 11; conditions: cited from earlier work
# [5] = cited from earlier work; remark: listed apart in the source
# [6] = system: rhinoviruses and enteroviruses; conditions: cited from earlier work
# [7] = Cytotoxicity (CC50) in mock-infected cells, MTT assay; assay type: cell-based; conditions: human, HeLa cells (mock-infected), 50% cytotoxic concentration, read-out: CYTOTOX (CC50 μM)
# Method: (§1) For HeLa cells, the drugs were measured for EC50 (50% maximal effective concentration), which is the concentration of a drug inducing a response halfway between the baseline and maximum, using an MTT assay. With regard to RD and MRC-5 cells, CPE was determined using FDA (Fluorescein diacetate) or MTT. In order to determine the effect of drug toxicity on efficacy results, at the time of inoculation with the virus, mock-infection was also included. A virus-free medium was added to a cell culture, which was then subjected to the same treatment as the mock-infected cells inoculated with the virus. That is, the medium was removed after one hour of incubation, and dilutions of drugs in the medium were added once more. Following incubation for 2-3 days, the cells were observed under a microscope and the drugs were determined for CC50 (50% cytotoxic concentration) at which 50% of the cells were killed, using an MTT assay in which counts of viable cells in mock-infected wells containing drugs were compared to those of viable cells in control wells containing no drugs. In an FDA hydrolysis assay, FDA was added to each well after removal of the medium, and incubated for 20-30 min before fluorescence intensity was measured using a spectrofluorometer to determine CPE in the same manner as in MTT.
# That is, the survival rate (% survival) of mock-infected cells for cytotoxicity measurement was calculated using the Mathematical Formula 1 below: Cell Drug=Survival by [A(Drug)−A(Background solution)/A(Cell control)−A(Background×100% Solution)]
# While 100% cell survival means no cytotoxicity of the drug, the highest cytotoxicity is reflected by 0% cell survival. The 50% cytotoxic concentration was defined as the concentration required to reduce the cell number by 50%. This concentration of the drug is represented as CC50. Higher values mean lower cytotoxicity. […]
# In Mathematical Formulae 3 and 4 above, • OD (CC) represents the OD of the background cell culture that is neither induced by a virus nor treated by chemical, • OD (VC) represents the OD of the control cell culture that is induced by a virus but not treated by chemical, • OD (Virus+Compound) represents the OD of the cell culture infected by a virus that has been treated with a concentrated compound, • OD (Compound) represents the OD of the cell culture that has been treated with a concentrated compound only, and • OD (Blank) represents the OD of the well to which only the cell culture has been added.
# The effective concentration (EC50) represents the concentration of a drug at which 50% of cells are allowed to survive by CPE of an induced virus, and the cytotoxicity concentration (CC50) represents the concentration of a drug at which a compound has killed 50% of cells, and they were calculated by the logarithmic interpolation.
# [8] = system: C15_C3 REPLICON; assay: C15_C3 replicon assay; assay type: cell-based
# [9] = system: HRV A29; assay: HRV A29 CPE inhibition assay; assay type: cell-based; conditions: Human rhinovirus sp.; HRV A29, cytopathic effect inhibition
# Method: (§2) Bioactivity of the Compounds of the Invention was Determined Using the Following Methods. Determination of Drug Efficacy Against Picornaviruses Using Cytopathic Effect (CPE) Inhibition Assay
# (§3) In the assay, HeLa (human cervical cancer cells), MRC-5 (human fetal lung fibroblast cells), and RD cells (derived from human rhabdomyosarcoma) were employed. For comparison, ribavirin (Riv), Pleconaril (pleco), and […] (BTA) were used as controls. Reagents were dissolved at a concentration of 10-40 mg/ml in 100% dimethyl sulfoxide (DMSO). Water-soluble reagents were dissolved in PBS (−) solution and stored at −20° C. On the day of the experiment, they were used in 3 fold to 5 fold concentrations in such a manner that the concentration of dimethyl sulfoxide in each well was between 0.5% and 1%.
# (§4) Pharmaceutical efficacy was determined using a virus-induced cytopathic effect (CPE) inhibition assay. In this regard, after cells suitable for viruses were grown in 96-well plates, dilutions of viruses in DME supplemented with 2% FBS (DME/2% FBS) or MEM supplemented with 2% FBS (MEM/2% FBS) were inoculated in an amount of […] with a concentration corresponding to 100 CCID50 (50% cell culture infective dose) into each well of the plates, and incubated for 30 min-1 hr at 33° C. or 37° C. to allow the viruses to adsorb onto the cells. The culture medium was removed before aliquots of drug dilutions with various concentrations were added in an amount of 100 μl to each well. While HRV (human rhinovirus) was grown at 33° C., the other viruses were incubated in a 37° C. CO2 incubator for 2-3 days. Alternatively, the cells were cultured for 2-3 days without removal of the medium after they were added with 50 μl of each drug dilution having a 2-fold higher concentration and then with 50 μl of the virus dilution. Viruses were incubated in host HeLa cells at 37° C. for 2-3 days in DME/2% or MEM/2% FBS.
# as §1
# (§5) In addition, antiviral effects can be calculated using Mathematical Formula 2 below: Antiviral Effect=[A(Drug/Virus)−A(Virus Control)/A(Cell control)−A(Virus Control)]
# (§6) If the survival rate is 100%, its antiviral effect is 100% whereas if the survival rate is 0%, its antiviral effect is none. […]
# (§7) Specifically, cells grown to confluence in 96-well plates were infected with 100 50% cell culture infected doses (CCID50) of virus. After an adsorption period of 2 hrs at 37° C., the virus was removed and serial dilutions of the compounds were added. […] After removal of the medium, 90 μl of a culture medium and 10 μl of MTS-phenazine methosulfate (Promega, Leiden, The Netherlands) were added to each well. […]
# [10] = system: HRV A16; assay: HRV A16 CPE inhibition assay; assay type: cell-based; conditions: Human rhinovirus sp.; HRV A16, cytopathic effect inhibition
# Method: as §2, §3, §4, §1, §5, §6, §7
# [11] = system: HRV A1B; assay: HRV A1B CPE inhibition assay; assay type: cell-based; conditions: Human rhinovirus sp., cytopathic effect inhibition, read-out: HRV A1B_CPE (EC50 μM)
# Method: as §2, §3, §4, §1, §5, §6, §7
# [12] = system: HRV B14; assay: HRV B14 CPE inhibition assay; assay type: cell-based; conditions: Human rhinovirus sp.; HRV B14, cytopathic effect inhibition
# Method: as §2, §3, §4, §1, §5, §6, §7
smiles,measurement,setting,value
CC(C)S(=O)(=O)n1c(N)nc2ccc(/C(=N/O)c3ccccc3)cc21 [Enviroxime],pharmacokinetics in clinical studies,[1],bad pharmacokinetics
same,therapeutic effects in clinical studies,[1],insignificant or few therapeutic effects
Cc1cc(CCCCCOc2c(Cl)cc(C3=NCCO3)cc2Cl)on1 [WIN 54954],metabolization and excretion,[2],rapid metabolization and excretion
same,side effects,[3],skin rash
CCOC(=O)/C=C/[C@H](C[C@@H]1CCNC1=O)NC(=O)[C@@H](CC(=O)[C@@H](NC(=O)c1cc(C)on1)C(C)C)Cc1ccc(F)cc1 [AG 7088],concentration range of effect in the cell culture,[4],nanomolar concentration range
CCC(=O)C(CCCCCCOc1ccc(OC)cc1Cl)C(=O)CC [Arildone],solubility,[5],poor solubility
same,bioavailability,[2],low bioavailability
same,antiviral effects in the cell culture,[6],very good antiviral effects
CCOC(=O)c1ccc(OCCC2CCN(c3ccc(C)nn3)CC2)cc1 [pirodavir],antiviral effects in the cell culture,[6],very good antiviral effects
"Cc1cc(S(=O)(=O)N2CCN(C)CC2)[nH]c1C(=O)NC12C(=O)c3c(N)cccc3C1(O)Oc1cc(C(C)C)ccc12 (stereo not shown) [Example 13, N-(1-amino-4b-hydroxy-7-isopropyl-10-oxo-4b,10-dihydro-9bH-indeno[1,2-b]benzofuran-9b-yl)-3-methyl-5-((4-methylpiperazin-1-yl)sulfonyl)-1H-pyrrole-2-carboxamide]",CC50,[7],32.1 µM
same,EC50,[8],0.682 µM
same,EC50,[9],0.05 µM
same,EC50,[10],0.027 µM
same,EC50,[11],0.016 µM
same,EC50,[12],0.016 µM
Cc1cc(CCCCCCCOc2ccc(C3=NCCO3)cc2)on1 [disoxaril],bioavailability,[2],low bioavailability
same,metabolization and excretion,[2],rapid metabolization and excretion
same,antiviral effects in the cell culture,[6],very good antiviral effects
"Cc1c(C(=O)N[C@]23C(=O)c4c(N)cccc4[C@@]2(O)Oc2cc([C@H](C)C4CC4)ccc23)[nH]c(=O)n1C [Example 22, N-((4bR,9bR)-1-amino-7-((R)-1-cyclopropylethyl)-4b-hydroxy-10-oxo-4b,10-dihydro-9bH-indeno[1,2-b]benzofuran-9b-yl)-1,5-dimethyl-2-oxo-2,3-dihydro-1H-imidazole-4-carboxamide]",CC50,[7],34.9 µM
same,EC50,[8],1.89 µM
same,EC50,[9],0.023 µM
same,EC50,[10],0.063 µM
same,EC50,[11],0.041 µM
same,EC50,[12],0.016 µM
Cc1cc(CCCOc2c(C)cc(-c3noc(C(F)(F)F)n3)cc2C)on1 [Pleconaril],oral bioavailability,[2]; oral,very good oral bioavailability
